Measured values reported in patent US20230364070A1, “PYRROLO[3,2-C]PYRIDIN-4-ONE DERIVATIVES USEFUL IN THE TREATMENT OF CANCER” (Scorpion Therapeutics, Inc., priority 2020, published 2023).
Blank lines part the entries; values can stand above or below the molecule they belong to.

Experiments:
Format in all cases: cell-based
[1] = target: T1, Ba/F3 cells with EGFR exon 20 ASV Ins V769_D770 (Homo sapiens, UniProt P00533, INS769ASV); experiment: EGFR activity: Ba/F3 cell viability (CellTiter-Glo, 72 h), EGFR exon 20 ASV insertion; details: EGFR exon 20 ASV Ins V769_D770, cell viability, read-out: BaF3 ASV IC50
T1 construct: expressed in transfected cells; host or cells: Ba/F3 (murine pro-B cells), retroviral transduction, puromycin selection, IL3-independent pool

Ba/F3 cells with EGFR WT = target: T2, Ba/F3 cells with EGFR WT (Homo sapiens, UniProt P00533); experiment: EGFR activity: Ba/F3 cell viability (CellTiter-Glo, 72 h), EGFR WT; details: read-out: BaF3 WT IC50
T2 construct: expressed in transfected cells; host or cells: Ba/F3 (murine pro-B cells), retroviral transduction, puromycin selection, maintained with EGF

pEGFR in CUTO14 cells = target: T3, pEGFR in CUTO14 cells (Homo sapiens, UniProt P00533, DUP767-769); experiment: Inhibitor activity on EGFR phosphorylation (pEGFR AlphaLISA, 2 h), CUTO14 cells
T3 construct: endogenous in cells; host or cells: CUTO14 cells
Description: CUTO14 cells were obtained from Dr. Robert C. Doebele at the University of Colorado.
Shake 350 rpm for 1 hr in the dark • 3.4 Prepare donor mix under low light conditions prior to use. Dispense 5 μL of donor mix to all the wells. Mix well on the shaker, seal and wrap in aluminum foil and incubate 1.5 hrs at room temperature in the dark • 3.5 Transfer 18.5 μL mixture to OptiPlate 384, and read using an Envision.

[2] = target: T4, Ba/F3 cells with EGFR exon 20 NPG Ins D770_N771 (Homo sapiens, UniProt P00533, INS770NPG); experiment: EGFR activity: Ba/F3 cell viability (CellTiter-Glo, 72 h), EGFR exon 20 NPG insertion; details: EGFR exon 20 NPG Ins D770_N771, cell viability, read-out: BaF3 NPG IC50
T4 construct: expressed in transfected cells; host or cells: Ba/F3 (murine pro-B cells), retroviral transduction, puromycin selection, IL3-independent pool
T4 sequence (P00533 with tags, fused parts or gaps INS770NPG): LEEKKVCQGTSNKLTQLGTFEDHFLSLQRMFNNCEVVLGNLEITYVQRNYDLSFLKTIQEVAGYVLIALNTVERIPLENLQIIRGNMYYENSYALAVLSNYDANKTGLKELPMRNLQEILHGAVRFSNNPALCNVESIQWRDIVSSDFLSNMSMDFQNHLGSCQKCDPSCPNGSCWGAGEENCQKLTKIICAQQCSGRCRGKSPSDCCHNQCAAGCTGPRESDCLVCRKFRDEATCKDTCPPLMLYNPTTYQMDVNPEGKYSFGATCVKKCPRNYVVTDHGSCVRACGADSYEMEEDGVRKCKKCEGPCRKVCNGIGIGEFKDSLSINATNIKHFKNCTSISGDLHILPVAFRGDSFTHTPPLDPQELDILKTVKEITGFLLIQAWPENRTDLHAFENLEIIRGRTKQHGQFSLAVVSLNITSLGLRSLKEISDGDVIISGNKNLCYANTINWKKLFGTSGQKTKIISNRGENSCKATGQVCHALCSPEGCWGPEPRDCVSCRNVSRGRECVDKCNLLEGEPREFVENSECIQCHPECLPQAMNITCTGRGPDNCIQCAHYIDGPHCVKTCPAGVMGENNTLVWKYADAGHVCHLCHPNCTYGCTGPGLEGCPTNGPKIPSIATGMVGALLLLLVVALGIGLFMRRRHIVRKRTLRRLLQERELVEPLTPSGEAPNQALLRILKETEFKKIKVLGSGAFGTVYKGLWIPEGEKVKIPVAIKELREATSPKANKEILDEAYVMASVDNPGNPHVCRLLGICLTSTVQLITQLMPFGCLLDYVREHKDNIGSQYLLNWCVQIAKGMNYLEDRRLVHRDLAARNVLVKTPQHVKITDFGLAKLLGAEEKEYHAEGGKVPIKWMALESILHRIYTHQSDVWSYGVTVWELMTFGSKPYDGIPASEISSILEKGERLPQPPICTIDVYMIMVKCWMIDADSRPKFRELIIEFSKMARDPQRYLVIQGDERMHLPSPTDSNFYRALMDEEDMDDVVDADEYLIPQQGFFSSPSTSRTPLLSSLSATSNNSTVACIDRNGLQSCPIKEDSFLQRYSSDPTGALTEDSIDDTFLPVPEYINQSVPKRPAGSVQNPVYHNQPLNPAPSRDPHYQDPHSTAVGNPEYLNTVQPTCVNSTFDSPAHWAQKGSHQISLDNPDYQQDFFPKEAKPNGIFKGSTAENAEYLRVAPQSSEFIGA

T2 sequence (P00533 25-1210): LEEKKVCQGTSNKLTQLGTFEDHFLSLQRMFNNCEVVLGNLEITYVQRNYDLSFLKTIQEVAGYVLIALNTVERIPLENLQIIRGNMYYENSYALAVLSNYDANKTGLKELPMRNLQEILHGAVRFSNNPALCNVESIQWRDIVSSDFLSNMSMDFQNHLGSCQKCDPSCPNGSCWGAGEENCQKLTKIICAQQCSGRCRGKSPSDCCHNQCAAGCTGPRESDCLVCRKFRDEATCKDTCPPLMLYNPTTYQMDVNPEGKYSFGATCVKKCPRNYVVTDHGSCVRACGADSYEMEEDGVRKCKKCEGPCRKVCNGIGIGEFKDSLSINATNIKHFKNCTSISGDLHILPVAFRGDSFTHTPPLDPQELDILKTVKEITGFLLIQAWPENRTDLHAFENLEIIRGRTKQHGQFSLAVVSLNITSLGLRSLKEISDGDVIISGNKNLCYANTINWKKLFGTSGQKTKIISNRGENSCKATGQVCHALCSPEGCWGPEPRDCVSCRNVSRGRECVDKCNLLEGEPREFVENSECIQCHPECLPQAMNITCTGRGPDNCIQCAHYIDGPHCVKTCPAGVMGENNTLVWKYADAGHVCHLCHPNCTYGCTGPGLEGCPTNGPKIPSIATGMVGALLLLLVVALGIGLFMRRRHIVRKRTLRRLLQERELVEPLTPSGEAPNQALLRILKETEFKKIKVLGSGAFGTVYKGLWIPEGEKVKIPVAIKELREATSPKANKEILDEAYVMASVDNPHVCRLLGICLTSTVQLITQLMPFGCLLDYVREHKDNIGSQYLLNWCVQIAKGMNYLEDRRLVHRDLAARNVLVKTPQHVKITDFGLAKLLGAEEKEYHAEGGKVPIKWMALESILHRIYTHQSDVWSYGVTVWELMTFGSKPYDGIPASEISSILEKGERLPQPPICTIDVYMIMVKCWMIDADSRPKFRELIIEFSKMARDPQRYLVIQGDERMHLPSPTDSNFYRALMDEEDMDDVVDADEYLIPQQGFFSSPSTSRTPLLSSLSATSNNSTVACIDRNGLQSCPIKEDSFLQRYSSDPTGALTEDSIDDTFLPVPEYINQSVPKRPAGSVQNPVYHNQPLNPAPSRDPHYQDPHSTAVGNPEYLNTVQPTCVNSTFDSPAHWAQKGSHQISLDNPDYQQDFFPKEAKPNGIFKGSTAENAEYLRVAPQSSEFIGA
T3 sequence (P00533 with tags, fused parts or gaps DUP767-769): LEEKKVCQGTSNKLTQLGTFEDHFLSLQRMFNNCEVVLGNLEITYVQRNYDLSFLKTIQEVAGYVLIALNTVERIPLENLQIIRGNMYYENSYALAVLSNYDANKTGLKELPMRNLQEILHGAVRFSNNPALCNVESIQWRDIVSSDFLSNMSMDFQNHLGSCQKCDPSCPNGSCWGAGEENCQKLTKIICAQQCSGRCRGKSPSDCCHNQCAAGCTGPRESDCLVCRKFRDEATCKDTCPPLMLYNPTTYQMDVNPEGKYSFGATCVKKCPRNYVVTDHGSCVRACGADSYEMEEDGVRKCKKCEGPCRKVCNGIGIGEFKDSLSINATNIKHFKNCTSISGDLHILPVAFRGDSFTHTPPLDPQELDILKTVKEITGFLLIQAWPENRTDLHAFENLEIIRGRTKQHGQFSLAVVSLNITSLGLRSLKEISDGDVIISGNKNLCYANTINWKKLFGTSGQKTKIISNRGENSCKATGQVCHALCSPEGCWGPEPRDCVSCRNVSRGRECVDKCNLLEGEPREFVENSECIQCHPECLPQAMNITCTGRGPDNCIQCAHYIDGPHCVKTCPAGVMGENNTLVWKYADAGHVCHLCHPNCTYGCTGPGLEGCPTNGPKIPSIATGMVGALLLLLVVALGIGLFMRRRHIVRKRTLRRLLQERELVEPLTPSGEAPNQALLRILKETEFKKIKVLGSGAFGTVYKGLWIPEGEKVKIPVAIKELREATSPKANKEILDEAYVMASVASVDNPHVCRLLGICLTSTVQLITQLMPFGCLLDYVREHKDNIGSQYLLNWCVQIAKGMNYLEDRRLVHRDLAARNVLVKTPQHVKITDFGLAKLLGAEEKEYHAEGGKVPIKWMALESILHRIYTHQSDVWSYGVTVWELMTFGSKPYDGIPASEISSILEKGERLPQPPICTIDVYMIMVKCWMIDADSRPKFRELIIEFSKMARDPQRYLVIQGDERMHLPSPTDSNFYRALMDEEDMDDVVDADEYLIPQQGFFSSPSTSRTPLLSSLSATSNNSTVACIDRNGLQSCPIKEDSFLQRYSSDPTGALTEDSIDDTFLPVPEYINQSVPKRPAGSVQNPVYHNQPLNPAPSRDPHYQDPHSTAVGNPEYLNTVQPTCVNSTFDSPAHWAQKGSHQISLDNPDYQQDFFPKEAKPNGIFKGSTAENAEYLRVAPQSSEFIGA
T1 sequence (P00533 with tags, fused parts or gaps INS769ASV): as the sequence (P00533 with tags, fused parts or gaps DUP767-769) above

Compound: C=CC(=O)N1[C@H]2CC[C@H](C2)[C@@H]1C#Cc1cnccc1-c1[nH]c2c(c1Nc1cccc(Cl)c1OC)C(=O)NCC2 [compound 236, 3-[(3-chloro-2-methoxyphenyl)amino]-2-(3-{2-[(1S,3R,4R)-2-(prop-2-enoyl)-2-azabicyclo[2.2.1]heptan-3-yl]ethynyl}pyridin-4-yl)-1H,5H,6H,7H-pyrrolo[3,2-c]pyridin-4-one]
IC50 [1]: < 100 nM
IC50 (Ba/F3 cells with EGFR WT): 100 to 1000 nM
IC50 (pEGFR in CUTO14 cells): < 100 nM
IC50 [2]: < 100 nM

Compound: C=CC(=O)N1[C@H](C#Cc2cnccc2-c2[nH]c3c(c2Nc2cccc(Cl)c2OC)C(=O)NCC3)CC[C@@H]1C [compound 240, 3-[(3-chloro-2-methoxyphenyl)amino]-2-(3-{2-[(2S,5S)-5-methyl-1-(prop-2-enoyl)pyrrolidin-2-yl]ethynyl}pyridin-4-yl)-1H,5H,6H,7H-pyrrolo[3,2-c]pyridin-4-one]
IC50 [1]: < 100 nM
IC50 (Ba/F3 cells with EGFR WT): < 100 nM
IC50 (pEGFR in CUTO14 cells): < 100 nM
IC50 [2]: < 100 nM

Compound: C=CC(=O)N1[C@H]2CC[C@H](C2)[C@@H]1C#Cc1cnccc1-c1[nH]c2c(c1Nc1cccc(F)c1OC)C(=O)NCC2 [compound 252, 3-[(3-fluoro-2-methoxyphenyl)amino]-2-(3-{2-[(1S,3R,4R)-2-(prop-2-enoyl)-2-azabicyclo[2.2.1]heptan-3-yl]ethynyl}pyridin-4-yl)-1H,5H,6H,7H-pyrrolo[3,2-c]pyridin-4-one]
IC50 [1]: < 100 nM
IC50 (Ba/F3 cells with EGFR WT): 100 to 1000 nM
IC50 (pEGFR in CUTO14 cells): < 100 nM
IC50 [2]: < 100 nM

Compound: C=CC(=O)N1[C@H](C#Cc2cnccc2-c2[nH]c3c(c2Nc2cccc(F)c2OC)C(=O)NCC3)CC[C@@H]1C [compound 255, 3-[(3-fluoro-2-methoxyphenyl)amino]-2-(3-{2-[(2S,5S)-5-methyl-1-(prop-2-enoyl)pyrrolidin-2-yl]ethynyl}pyridin-4-yl)-1H,5H,6H,7H-pyrrolo[3,2-c]pyridin-4-one]
IC50 [1]: < 100 nM
IC50 (Ba/F3 cells with EGFR WT): < 100 nM
IC50 (pEGFR in CUTO14 cells): < 100 nM
IC50 [2]: < 100 nM

Compound: C=CC(=O)N1[C@H](C)CC[C@H]1C#Cc1cnccc1-c1[nH]c2c(c1Nc1cccc(F)c1OC)C(=O)NCC2 [compound 257]
IC50 [1]: < 100 nM
IC50 (Ba/F3 cells with EGFR WT): < 100 nM
IC50 (pEGFR in CUTO14 cells): < 100 nM
IC50 [2]: < 100 nM

Compound: C=CC(=O)NC1(C#Cc2cnccc2-c2[nH]c3c(c2Nc2cccc(Cl)c2OC)C(=O)NCC3)CCC1 [compound 261]
IC50 [1]: < 100 nM
IC50 (Ba/F3 cells with EGFR WT): 100 to 1000 nM
IC50 (pEGFR in CUTO14 cells): < 100 nM
IC50 [2]: < 100 nM

Compound: C=CC(=O)NC1(C#Cc2cnccc2-c2[nH]c3c(c2Nc2cccc(Cl)c2OC)C(=O)NCC3)COC1 [compound 264, N-{3-[2-(4-{3-[(3-chloro-2-methoxyphenyl)amino]-4-oxo-1H,5H,6H,7H-pyrrolo[3,2-c]pyridin-2-yl}pyridin-3-yl)ethynyl]oxetan-3-yl}prop-2-enamide]
IC50 [1]: < 100 nM
IC50 (Ba/F3 cells with EGFR WT): 100 to 1000 nM
IC50 (pEGFR in CUTO14 cells): < 100 nM
IC50 [2]: < 100 nM

Compound: C=CC(=O)N1CC2CC1(C#Cc1cnccc1-c1[nH]c3c(c1Nc1cccc(F)c1OC)C(=O)NCC3)C2 [compound 318, 3-[(3-fluoro-2-methoxyphenyl)amino]-2-(3-{2-[2-(prop-2-enoyl)-2-azabicyclo[2.1.1]hexan-1-yl]ethynyl}pyridin-4-yl)-1H,5H,6H,7H-pyrrolo[3,2-c]pyridin-4-one]
IC50 (pEGFR in CUTO14 cells): < 100 nM

Compound: COc1c(F)cccc1Nc1c(-c2ccncc2C#C[C@@]2(C)CCCN2C(=O)/C=C/CN(C)C)[nH]c2c1C(=O)NCC2 [compound 335, 2-(3-{2-[(2R)-1-[(2E)-4-(dimethylamino)but-2-enoyl]-2-methylpyrrolidin-2-yl]ethynyl}pyridin-4-yl)-3-[(3-fluoro-2-methoxyphenyl)amino]-1H,5H,6H,7H-pyrrolo[3,2-c]pyridin-4-one]
IC50 (pEGFR in CUTO14 cells): < 100 nM

Compound: COc1c(F)cccc1Nc1c(-c2ccncc2C#C[C@H]2CC(C)(C)CN2C(=O)/C=C/CN(C)C)[nH]c2c1C(=O)NCC2 [compound 344, 2-(3-{2-[(2R)-1-[(2E)-4-(dimethylamino)but-2-enoyl]-4,4-dimethylpyrrolidin-2-yl]ethynyl}pyridin-4-yl)-3-[(3-fluoro-2-methoxyphenyl)amino]-1H,5H,6H,7H-pyrrolo[3,2-c]pyridin-4-one]
IC50 (pEGFR in CUTO14 cells): < 100 nM

Compound: COc1c(F)cccc1Nc1c(-c2ccncc2C#C[C@H]2C[C@@H]3C[C@@H]3N2C(=O)/C=C/CN(C)C)[nH]c2c1C(=O)NCC2 [compound 345, 2-(3-{2-[(1S,3R,5S)-2-[(2E)-4-(dimethylamino)but-2-enoyl]-2-azabicyclo[3.1.0]hexan-3-yl]ethynyl}pyridin-4-yl)-3-[(3-fluoro-2-methoxyphenyl)amino]-1H,5H,6H,7H-pyrrolo[3,2-c]pyridin-4-one]
IC50 (pEGFR in CUTO14 cells): < 100 nM

Compound: CC#CC(=O)N1CC[C@@H]1COc1cnccc1-c1[nH]c2c(c1Nc1cccc(Cl)c1CC)C(=O)NCC2 [compound 348, 2-(3-{[(2R)-1-(but-2-ynoyl)azetidin-2-yl]methoxy}pyridin-4-yl)-3-[(3-chloro-2-ethylphenyl)amino]-1H,5H,6H,7H-pyrrolo[3,2-c]pyridin-4-one]
IC50 (pEGFR in CUTO14 cells): < 100 nM

Compound: COc1c(Cl)cccc1Nc1c(-c2ccncc2C#C[C@@]2(C)CCCN2C(=O)/C=C/CN(C)C)[nH]c2c1C(=O)NCC2 [compound 362, 3-[(3-chloro-2-methoxyphenyl)amino]-2-(3-{2-[(2R)-1-[(2E)-4-(dimethylamino)but-2-enoyl]-2-methylpyrrolidin-2-yl]ethynyl}pyridin-4-yl)-1H,5H,6H,7H-pyrrolo[3,2-c]pyridin-4-one]
IC50 (pEGFR in CUTO14 cells): < 100 nM

Compound: C=CC(=O)N[C@@H](C)C#Cc1cnccc1-c1[nH]c2c(c1Nc1cccc(F)c1OC)C(=O)NCC2 [compound 375, N-[(2S)-4-(4-{3-[(3-fluoro-2-methoxyphenyl)amino]-4-oxo-1H,5H,6H,7H-pyrrolo[3,2-c]pyridin-2-yl}pyridin-3-yl)but-3-yn-2-yl]prop-2-enamide]
IC50 (pEGFR in CUTO14 cells): < 100 nM

Compound: C=CC(=O)N[C@@H](C)C#Cc1cnccc1-c1[nH]c2c(c1Nc1cccc(Cl)c1OC)C(=O)NCC2 [compound 376, N-[(2S)-4-(4-{3-[(3-chloro-2-methoxyphenyl)amino]-4-oxo-1H,5H,6H,7H-pyrrolo[3,2-c]pyridin-2-yl}pyridin-3-yl)but-3-yn-2-yl]prop-2-enamide]
IC50 (pEGFR in CUTO14 cells): < 100 nM

Compound: COc1c(Cl)cccc1Nc1c(-c2ccncc2C#C[C@H]2C[C@@H]3C[C@@H]3N2C(=O)/C=C/CN(C)C)[nH]c2c1C(=O)NCC2 [compound 466, 3-[(3-chloro-2-methoxyphenyl)amino]-2-(3-{2-[(1S,3R,5S)-2-[(2E)-4-(dimethylamino)but-2-enoyl]-2-azabicyclo[3.1.0]hexan-3-yl]ethynyl}pyridin-4-yl)-1H,5H,6H,7H-pyrrolo[3,2-c]pyridin-4-one]
IC50 (pEGFR in CUTO14 cells): < 100 nM

Compound: C=CC(=O)N1CC[C@@]1(C)C#Cc1cnccc1-c1[nH]c2c(c1Nc1cccc(Cl)c1OC)C(=O)NCC2 [compound 550, 3-[(3-chloro-2-methoxyphenyl)amino]-2-(3-{2-[(2S)-2-methyl-1-(prop-2-enoyl)azetidin-2-yl]ethynyl}pyridin-4-yl)-1H,5H,6H,7H-pyrrolo[3,2-c]pyridin-4-one]
IC50 (pEGFR in CUTO14 cells): > 1000 nM

Now from value to molecule, other results behind:

IC50 (pEGFR in CUTO14 cells): < 100 nM
Compound: C=CC(=O)N1CCOC[C@H]1COc1cnccc1-c1[nH]c2c(c1Nc1cccc(F)c1OC)C(=O)NCC2 [compound 190]
IC50 [1]: < 100 nM
IC50 (Ba/F3 cells with EGFR WT): 100 to 1000 nM
IC50 [2]: < 100 nM

IC50 (pEGFR in CUTO14 cells): < 100 nM
Compound: C=CC(=O)N1CC(C)(C)C[C@@H]1COc1cnccc1-c1[nH]c2c(c1Nc1cccc(Cl)c1OC)C(=O)NCC2 [compound 265]
IC50 [1]: < 100 nM
IC50 (Ba/F3 cells with EGFR WT): < 100 nM
IC50 [2]: < 100 nM

IC50 (pEGFR in CUTO14 cells): < 100 nM
Compound: C=CC(=O)N1[C@H](COc2cnccc2-c2[nH]c3c(c2Nc2cccc(Cl)c2OC)C(=O)NCC3)C[C@H]1C [compound 270]
IC50 [1]: < 100 nM
IC50 (Ba/F3 cells with EGFR WT): 100 to 1000 nM
IC50 [2]: < 100 nM

IC50 (pEGFR in CUTO14 cells): < 100 nM
Compound: C=CC(=O)N1[C@@H](COc2cnccc2-c2[nH]c3c(c2Nc2cccc(Cl)c2OC)C(=O)NCC3)C[C@H]1C [compound 271]
IC50 [1]: < 100 nM
IC50 (Ba/F3 cells with EGFR WT): < 100 nM
IC50 [2]: < 100 nM

IC50 (pEGFR in CUTO14 cells): < 100 nM
Compound: C=CC(=O)N1C(C)CC1COc1cnccc1-c1[nH]c2c(c1Nc1cccc(F)c1OC)C(=O)NCC2 (stereo not shown) [compound 333]

IC50 (pEGFR in CUTO14 cells): < 100 nM
Compound: C=C(F)C(=O)N1CC[C@H]1COc1cnccc1-c1[nH]c2c(c1Nc1cccc(Cl)c1OC)C(=O)NCC2 [compound 363, 3-[(3-chloro-2-methoxyphenyl)amino]-2-(3-{[(2S)-1-(2-fluoroprop-2-enoyl)azetidin-2-yl]methoxy}pyridin-4-yl)-1H,5H,6H,7H-pyrrolo[3,2-c]pyridin-4-one]

IC50 (pEGFR in CUTO14 cells): < 100 nM
Compound: C=CC(=O)N1CC(C)(C)[C@H]1COc1cnccc1-c1[nH]c2c(c1Nc1cccc(Cl)c1OC)C(=O)NCC2 [compound 512, 3-[(3-chloro-2-methoxyphenyl)amino]-2-(3-{[(2S)-3,3-dimethyl-1-(prop-2-enoyl)azetidin-2-yl]methoxy}pyridin-4-yl)-1H,5H,6H,7H-pyrrolo[3,2-c]pyridin-4-one]

IC50 (pEGFR in CUTO14 cells): > 1000 nM
Compound: C=CC(=O)N1CC[C@]1(C)C#Cc1cnccc1-c1[nH]c2c(c1Nc1cccc(Cl)c1OC)C(=O)NCC2 [compound 551, 3-[(3-chloro-2-methoxyphenyl)amino]-2-(3-{2-[(2R)-2-methyl-1-(prop-2-enoyl)azetidin-2-yl]ethynyl}pyridin-4-yl)-1H,5H,6H,7H-pyrrolo[3,2-c]pyridin-4-one]
